Source: patent US20240293421A1, “CRYSTALLINE COMPOSITION OF TILDACERFONT AND METHODS OF USE AND PREPARATION THEREOF” (Spruce Biosciences, Inc., priority 2021, published 2024)

Legend:
[1] = Stability under accelerated aging conditions (40±2° C./75±5% RH); assay type: physicochemical; design: key to Related Substances by HPLC: a. C07102401-F-Imp1 / Related Substances by HPLC: b. C07102401-F-Imp2 / Related Substances by HPLC: c. Any unspecified impurity / Related Substances by HPLC: d. Total impurities: BDRL: below disregard limit; conditions: for Description / Identification by FT-IR / Identification by XRPD / Related Substances by HPLC: a. C07102401-F-Imp1 / Related Substances by HPLC: b. C07102401-F-Imp2 / Related Substances by HPLC: c. Any unspecified impurity / Related Substances by HPLC: d. Total impurities / Water Content by KF / Assay of Compound 1 by HPLC: accelerated aging 40±2° C./75±5% RH; for Assay of Compound 1 by HPLC: on anhydrous basis and solvent free basis
From the text: (§1) To determine the stability of the crystalline compositions prepared comprising the methods described herein, crystalline compositions comprising Compound 1 and oxalic acid were formulated. Samples of the crystalline composition comprising Compound 1-oxalic acid co-crystal were packed in a transparent low-density polyethylene (LDPE) bag, and closed by twisting the bag and tying it with a strip seal. The transparent LDPE bag was then placed in a black LDPE bag that was twisted and tied with a strip seal. The bags were then placed in a high-density polyethylene container. The samples were then subjected to accelerated aging conditions (40±2° C./75±5% relative humidity (RH)) or long-term storage conditions (25±2° C./60±5% RH). Sample stability measurements in each condition were measured at baseline (before exposure to accelerated aging conditions or long-term storage conditions), and one month, two months, and three months after exposure to said conditions. Sample stability measurements included a description of the sample's physical appearance (e.g., color and form), identification by Fourier-transform infrared spectroscopy (FT-IR), identification by X-ray powder diffraction (XRPD), water content (measured by Karl Fischer (KF) on a % weight/weight basis), identification of related substances (e.g., impurities), and high-performance liquid chromatography ((HPLC) measured on a % weight/weight on an anhydrous basis and solvent free basis). Samples of the crystalline composition comprising Compound 1-oxalic acid co-crystal prepared in Example 3 are subjected to accelerated aging conditions (40±2° C./75±5% relative humidity (RH)) or long-term storage conditions (25±2° C./60±5% RH). Sample stability measurements in each condition are measured at baseline (before exposure to accelerated aging conditions or long-term storage conditions), and four months, five months, six months, seven months, eight months, nine months, ten months, eleven months, twelve months, fourteen months, sixteen months, and eighteen months after exposure to said conditions. Sample stability measurements include a description of the sample's physical appearance (e.g., color and form), identification by Fourier-transform infrared spectroscopy (FT-IR), identification by X-ray powder diffraction (XRPD), water content (measured by Karl Fischer (KF) on a % weight/weight basis), identification of related substances (e.g., impurities), and high-performance liquid chromatography ((HPLC) measured on a % weight/weight on an anhydrous basis and solvent free basis).

[2] = Stability under long-term storage conditions (25±2° C./60±5% RH); assay type: physicochemical; design: key to Related Substances by HPLC: a. C07102401-F-Imp1 / Related Substances by HPLC: b. C07102401-F-Imp2 / Related Substances by HPLC: c. Any unspecified impurity / Related Substances by HPLC: d. Total impurities: BDRL: below disregard limit; conditions: for Description / Identification by FT-IR / Identification by XRPD / Related Substances by HPLC: a. C07102401-F-Imp1 / Related Substances by HPLC: b. C07102401-F-Imp2 / Related Substances by HPLC: c. Any unspecified impurity / Related Substances by HPLC: d. Total impurities / Water Content by KF / Assay of Compound 1 by HPLC: long-term storage 25±2° C./60±5% RH; for Assay of Compound 1 by HPLC: on anhydrous basis and solvent free basis
From the text: as §1

SMILES: CCC(CC)c1cc(C)nc2c(-c3sc(N4CCOCC4)nc3Cl)c(C)nn12 [Compound 1-oxalic acid co-crystal]
- Description ([1]; 1 month): Light yellow
- Identification by FT-IR ([1]; 1 month): concordant
- Identification by XRPD ([1]; 1 month): is consistent
- Related Substances by HPLC: a. C07102401-F-Imp1 ([1]; 1 month): BDRL
- Related Substances by HPLC: b. C07102401-F-Imp2 ([1]; 1 month): BDRL
- Related Substances by HPLC: c. Any unspecified impurity ([1]; 1 month): BDRL
- Related Substances by HPLC: d. Total impurities ([1]; 1 month): BDRL
- Water Content by KF ([1]; 1 month): 0.09 % w/w
- Description ([1]; 2 months): Light yellow
- Identification by FT-IR ([1]; 2 months): concordant
- Identification by XRPD ([1]; 2 months): is consistent
- Related Substances by HPLC: a. C07102401-F-Imp1 ([1]; 2 months): BDRL
- Related Substances by HPLC: b. C07102401-F-Imp2 ([1]; 2 months): BDRL
- Related Substances by HPLC: c. Any unspecified impurity ([1]; 2 months): BDRL
- Related Substances by HPLC: d. Total impurities ([1]; 2 months): BDRL
- Water Content by KF ([1]; 2 months): 0.02 % w/w
- Description ([1]; 3 months): Light yellow
- Identification by FT-IR ([1]; 3 months): concordant
- Identification by XRPD ([1]; 3 months): is consistent
- Related Substances by HPLC: a. C07102401-F-Imp1 ([1]; 3 months): BDRL
- Related Substances by HPLC: b. C07102401-F-Imp2 ([1]; 3 months): BDRL
- Related Substances by HPLC: c. Any unspecified impurity ([1]; 3 months): BDRL
- Related Substances by HPLC: d. Total impurities ([1]; 3 months): BDRL
- Water Content by KF ([1]; 3 months): 0.08 % w/w
- Description ([1]; baseline): Light yellow
- Identification by FT-IR ([1]; baseline): concordant
- Identification by XRPD ([1]; baseline): is consistent
- Related Substances by HPLC: a. C07102401-F-Imp1 ([1]; baseline): BDRL
- Related Substances by HPLC: b. C07102401-F-Imp2 ([1]; baseline): BDRL
- Related Substances by HPLC: c. Any unspecified impurity ([1]; baseline): BDRL
- Related Substances by HPLC: d. Total impurities ([1]; baseline): BDRL
- Water Content by KF ([1]; baseline): 0.02 % w/w
- Assay of Compound 1 by HPLC ([1]; 1 month): 99.2 % w/w
- Assay of Compound 1 by HPLC ([1]; 2 months): 100.1 % w/w
- Assay of Compound 1 by HPLC ([1]; 3 months): 99.2 % w/w
- Assay of Compound 1 by HPLC ([1]; baseline): 99.9 % w/w
- Stability (overall conclusion) ([1]; up to 3 months at accelerated aging conditions (40±2° C./75±5% RH)): stable
- Description ([2]; 1 month): Light yellow
- Identification by FT-IR ([2]; 1 month): concordant
- Identification by XRPD ([2]; 1 month): is consistent
- Related Substances by HPLC: a. C07102401-F-Imp1 ([2]; 1 month): BDRL
- Related Substances by HPLC: b. C07102401-F-Imp2 ([2]; 1 month): BDRL
- Related Substances by HPLC: c. Any unspecified impurity ([2]; 1 month): BDRL
- Related Substances by HPLC: d. Total impurities ([2]; 1 month): BDRL
- Water Content by KF ([2]; 1 month): 0.10 % w/w
- Description ([2]; 2 months): Light yellow
- Identification by FT-IR ([2]; 2 months): concordant
- Identification by XRPD ([2]; 2 months): is consistent
- Related Substances by HPLC: a. C07102401-F-Imp1 ([2]; 2 months): BDRL
- Related Substances by HPLC: b. C07102401-F-Imp2 ([2]; 2 months): BDRL
- Related Substances by HPLC: c. Any unspecified impurity ([2]; 2 months): BDRL
- Related Substances by HPLC: d. Total impurities ([2]; 2 months): BDRL
- Water Content by KF ([2]; 2 months): 0.03 % w/w
- Description ([2]; 3 months): Light yellow
- Identification by FT-IR ([2]; 3 months): concordant
- Identification by XRPD ([2]; 3 months): is consistent
- Related Substances by HPLC: a. C07102401-F-Imp1 ([2]; 3 months): BDRL
- Related Substances by HPLC: b. C07102401-F-Imp2 ([2]; 3 months): BDRL
- Related Substances by HPLC: c. Any unspecified impurity ([2]; 3 months): BDRL
- Related Substances by HPLC: d. Total impurities ([2]; 3 months): BDRL
- Water Content by KF ([2]; 3 months): 0.05 % w/w
- Description ([2]; baseline): Light yellow
- Identification by FT-IR ([2]; baseline): concordant
- Identification by XRPD ([2]; baseline): is consistent
- Related Substances by HPLC: a. C07102401-F-Imp1 ([2]; baseline): BDRL
- Related Substances by HPLC: b. C07102401-F-Imp2 ([2]; baseline): BDRL
- Related Substances by HPLC: c. Any unspecified impurity ([2]; baseline): BDRL
- Related Substances by HPLC: d. Total impurities ([2]; baseline): BDRL
- Water Content by KF ([2]; baseline): 0.02 % w/w
- Assay of Compound 1 by HPLC ([2]; 1 month): 99.2 % w/w
- Assay of Compound 1 by HPLC ([2]; 2 months): 100.1 % w/w
- Assay of Compound 1 by HPLC ([2]; 3 months): 99.2 % w/w
- Assay of Compound 1 by HPLC ([2]; baseline): 99.9 % w/w
- Stability (overall conclusion) ([2]; up to 3 months at long-term storage conditions (25±2° C./60±5% RH)): stable
